Data on 16 compounds can be found in PubChem BioAssay (NCI).

Assay in all cases: NCI anticancer screen, dose series, 48 h
Experiment [1] deals with NCI-H226 lung.
Experiment [2] concerns DU-145 prostate.
In experiment [3] the test system is HCT-116 colon.
Experiment [4] has as its system OVCAR-3 ovarian.
The subject of experiment [5] is HCC-2998 colon.
Experiment [6] has as its system CAKI-1 renal.
In experiment [7] the test system is SK-MEL-28 melanoma.
Experiment [8] relates to NCI-H460 lung.
Experiment [9] has as its system MDA-MB-231 breast.
For experiment [10], the system named is NCI/ADR-RES ovarian.

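Exposure lasted 48 hours, with cells grown in 96-well plates and compounds tested at five concentrations. The concentration for 50% growth inhibition is given as GI50. TGI marks complete inhibition of growth.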 Bounds are passed on as bounds.

On to `COc1cccc(/C=C/C(=O)c2cc3c(N)c(C(=O)Nc4ccccc4)sc3nc2C)c1`, for which the GI50 was 1.15 µM in [1]; 1.39 µM in experiment [2]; 0.838 µM in experiment [3]; 1.18 µM in experiment [4]; 0.901 µM in [5]; 0.933 µM in experiment [6]. For the same compound, the figures for the GI50 in experiment [7], in experiment [8] and in [9] were 1.72 µM, 1.1 µM and 1.79 µM, respectively. Moreover, the TGI was determined as 2.75 µM in experiment [1]; 4.37 µM in experiment [2]; 1.58 µM in experiment [3]; 3.32 µM in experiment [4]; 1.66 µM in experiment [5]; 1.91 µM in experiment [6]. Moreover, the figures for the TGI in experiment [7], in [8] and in experiment [9] were 6.45 µM, 2.47 µM and 11.7 µM, respectively.
For the compound `O=S1(=O)CC#CC[C@@H](CO)[C@@H](CO)CC#CC1`, the TGI in experiment [3], in [4], in experiment [5], in experiment [7] and in experiment [8] was over 100 µM throughout.
For `Oc1ccc(Cl)cc1N=Nc1c(O)ccc2ccccc12`, the TGI in experiment [1], in experiment [3], in experiment [10], in experiment [4], in [6] and in [7] was over 100 µM in each case. In [9], this compound displayed a TGI of over 100 µM.
Regarding `CCCCCCCCCCCCCC(=O)OCC1OC(=O)C(O)C1O` (stereo not given), the TGI in experiment [1], in experiment [3], in experiment [4], in experiment [5], in experiment [6] and in experiment [7] was over 100 µM each time.
In the case of `CN(C)c1ccc(/C=C(\C#N)C(=O)c2ccccc2)cc1Br`, the TGI in experiment [1], in [3], in experiment [4], in experiment [5], in experiment [6] and in experiment [7] was over 100 µM each time. Moreover, the TGI in experiment [8] is over 100 µM.
In the case of `O=c1[nH]c(C2CCCCC2)nc2ccc(Cl)cc12`, the TGI in experiment [1], in experiment [3], in experiment [4], in [5] and in experiment [7] was over 100 µM throughout.
As to `c1ccc2cc(Cn3c(-c4cccc5ccccc45)[n+](Cc4ccc5ccccc5c4)c4c5ccccc5c5ccccc5c43)ccc2c1`, the GI50 in experiment [2] was 0.413 µM; in [3] it was 0.176 µM; in experiment [10], 1.77 µM; in experiment [5] it was 0.328 µM; in experiment [8], 0.254 µM. In addition, the TGI in [2] is 1.68 µM; in experiment [3], 1.5 µM; in experiment [10] it was 4.71 µM; in experiment [5], 1.59 µM; in [8] it was 1.41 µM.
Turning to `[N-]=[N+]=NCCCn1c2c(c3ccccc3c1=O)C(=O)c1cc3c(cc1-2)OCO3`, the GI50 was over 100 µM in experiment [1]; 76 µM in [2]; 29.8 µM in experiment [3]; 90.9 µM in experiment [10]; over 100 µM in experiment [4]; 8.25 µM in experiment [8]. In [9], the GI50 is over 100 µM. The TGI in experiment [1], in experiment [2], in [3], in [10], in experiment [4] and in [8] was over 100 µM each time. The TGI in [9] is over 100 µM.
As to `Cc1ccc(C2=C(c3ccccc3)C(O)(c3ccccc3)C(c3ccccc3)=C2c2ccc(C)cc2)cc1`, the TGI in [1], in [3], in experiment [5], in experiment [7] and in experiment [8] was over 100 µM throughout.
Turning to `CC(C)c1cccc(C(C)C)c1NC(=O)/C(Cc1nc2ccc(Cl)cc2[nH]c1=O)=N\NC(=O)C[N+](C)(C)C`, the TGI in experiment [3], in experiment [4], in experiment [5], in experiment [6], in [7] and in [8] was over 100 µM each time.
In the case of `Cc1nc(-n2nc(-c3ccccc3)cc2-c2ccccc2)sc1C(/C=C\c1ccc([N+](=O)[O-])cc1)=N/NC(=S)NN`, the TGI in experiment [1] is over 86.6 µM; in experiment [2] it was 98.9 µM; in experiment [3], 41 µM; in experiment [10] it was 85.3 µM; in experiment [4] it was over 70.7 µM; in [5], 40.3 µM. Moreover, the TGI was over 56.5 µM in experiment [6], over 100 µM in experiment [7] and over 66.7 µM in experiment [8].
With `OCC1OC(NO)C(O)C(O)C1O` (stereo not given), the TGI in experiment [1], in experiment [3], in experiment [4], in [5], in [6] and in experiment [7] was over 100 µM throughout. In experiment [8], this compound displayed a TGI of over 100 µM.
Take `Cc1ccccc1C1SCc2nc3ccccc3n21` (stereo not given): the TGI in experiment [1], in experiment [3], in experiment [4], in experiment [5], in experiment [6] and in experiment [7] was over 100 µM each time.
In the case of `CN1C(=O)CC(CC(=O)C2CCCCC2=O)CC1=O` (stereo not given), the TGI in [1], in experiment [3], in [4], in [5], in experiment [6] and in experiment [7] was over 100 µM each time. The TGI in experiment [8] is over 100 µM.
Take `CCn1c(C)nc([N+](=O)[O-])c1Sc1ncc[nH]1`: the TGI in experiment [1], in experiment [3], in experiment [4], in [5], in experiment [6] and in experiment [7] was over 100 µM throughout. For the same compound, the TGI in experiment [8] is over 100 µM.
On to `O=C1/C(=C/c2ccc(C(=O)O)cc2)CNC/C1=C\c1ccc(C(=O)O)cc1`, for which the TGI in experiment [1], in experiment [3], in experiment [4], in [5], in [7] and in [8] was over 100 µM throughout.
